Test system: DU-145 multicell spheroids with HUVEC/MSC, viability
Test: Anticancer human tumor DU-145 cell line growth inhibition [IpAb];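 note: spheroids exposed to agents for seven days before measurement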;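 for viability, T/C: percent of DMSO vehicle control viability so 100% = untreated level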
Details: for IC50: curve of first compound; for viability, T/C: stronger effect = lower value
In short: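 Combinations with ipatasertib or abemaciclib were tested on tumour spheroids holding HUVEC (25%) and MSC (15%) alongside 60% malignant cells. Top concentration was at or near clinical Cmax (10 microM if undefined), descending in half-log steps.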

[1] = second compound 0.01 µM, first compound 0.0316 µM
[2] = second compound 0.01 µM, first compound 0.1 µM
[3] = second compound 0.01 µM, first compound 0.316 µM
[4] = second compound 0.01 µM, first compound 1 µM
[5] = second compound 0.01 µM, first compound 3.16 µM
[6] = second compound 0.01 µM, first compound 10 µM
[7] = second compound 0.0316 µM, first compound 0.0316 µM
[8] = second compound 0.0316 µM, first compound 0.1 µM
[9] = second compound 0.0316 µM, first compound 0.316 µM
[10] = second compound 0.0316 µM, first compound 1 µM
[11] = second compound 0.0316 µM, first compound 3.16 µM
[12] = second compound 0.0316 µM, first compound 10 µM
[13] = second compound 0.1 µM, first compound 0.0316 µM
[14] = second compound 0.1 µM, first compound 0.1 µM
[15] = second compound 0.1 µM, first compound 0.316 µM
[16] = second compound 0.1 µM, first compound 1 µM
[17] = second compound 0.1 µM, first compound 3.16 µM
[18] = second compound 0.1 µM, first compound 10 µM
[19] = second compound 0.316 µM, first compound 0.0316 µM
[20] = second compound 0.316 µM, first compound 0.1 µM
[21] = second compound 0.316 µM, first compound 0.316 µM
[22] = second compound 0.316 µM, first compound 1 µM
[23] = second compound 0.316 µM, first compound 3.16 µM
[24] = second compound 0.316 µM, first compound 10 µM
[25] = second compound 1 µM, first compound 0.0316 µM
[26] = second compound 1 µM, first compound 0.1 µM
[27] = second compound 1 µM, first compound 0.316 µM
[28] = second compound 1 µM, first compound 1 µM
[29] = second compound 1 µM, first compound 3.16 µM
[30] = second compound 1 µM, first compound 10 µM

SMILES	IC50 (second compound 0.01 µM) [nM]	IC50 (second compound 0.0316 µM) [nM]	IC50 (second compound 0.1 µM) [nM]	IC50 (second compound 0.316 µM) [nM]	IC50 (second compound 1 µM) [nM]	viability, T/C [1] [%]	viability, T/C [2] [%]	viability, T/C [3] [%]	viability, T/C [4] [%]	viability, T/C [5] [%]	viability, T/C [6] [%]	viability, T/C [7] [%]	viability, T/C [8] [%]	viability, T/C [9] [%]	viability, T/C [13] [%]	viability, T/C [14] [%]	viability, T/C [19] [%]	viability, T/C [20] [%]	viability, T/C [25] [%]	viability, T/C [26] [%]	further results
C=CC(=O)N1CCN(c2nc(=O)n(-c3c(C)ccnc3C(C)C)c3nc(-c4c(O)cccc4F)c(F)cc23)C(C)C1 (stereo not given) + CCN1CCN(Cc2ccc(Nc3ncc(F)c(-c4cc(F)c5nc(C)n(C(C)C)c5c4)n3)nc2)CC1	7920	7520	8370	9550	6070	94.6	104	111	104	86.1	40.6	91.2	95	98.7	82.8	81	78.8	78.3	66.1	64.4	viability, T/C [10]: 96.5%; viability, T/C [11]: 81.5%; viability, T/C [12]: 39.4%; viability, T/C [15]: 91.5%; viability, T/C [16]: 93.3%; viability, T/C [17]: 78.4%; viability, T/C [18]: 44.8%; viability, T/C [21]: 82.4%; viability, T/C [22]: 85.8%; viability, T/C [23]: 77.3%; viability, T/C [24]: 49%; viability, T/C [27]: 65.9%; viability, T/C [28]: 70.5%; viability, T/C [29]: 67.5%; viability, T/C [30]: 37.3%
Cn1ncc(Cl)c1-c1cc(C(=O)NC(CN)Cc2cccc(F)c2)sc1Cl (stereo not given) + CCN1CCN(Cc2ccc(Nc3ncc(F)c(-c4cc(F)c5nc(C)n(C(C)C)c5c4)n3)nc2)CC1	135	96.7	80.3	79.6	190	84.7	56.3	30.6	22.5	13.7	1.16	74.1	48.9	29.6	64.4	47.8	60	48.5	60.3	52	viability, T/C [10]: 19.6%; viability, T/C [11]: 14%; viability, T/C [12]: 0.22%; viability, T/C [15]: 29.4%; viability, T/C [16]: 19%; viability, T/C [17]: 13.4%; viability, T/C [18]: 0.82%; viability, T/C [21]: 32.8%; viability, T/C [22]: 23.4%; viability, T/C [23]: 16.4%; viability, T/C [24]: 0.85%; viability, T/C [27]: 50.2%; viability, T/C [28]: 30.9%; viability, T/C [29]: 25.8%; viability, T/C [30]: 0.53%
Cn1ncnc1[C@H]1c2n[nH]c(=O)c3cc(F)cc(c23)N[C@@H]1c1ccc(F)cc1 + CCN1CCN(Cc2ccc(Nc3ncc(F)c(-c4cc(F)c5nc(C)n(C(C)C)c5c4)n3)nc2)CC1	> 100	> 100	> 100	> 100	> 100	88.5	81.6	–	–	–	–	84.1	77.4	–	82.1	76	66.7	64.7	63.7	61.2	viability, T/C (second compound 0.01 µM, first compound 0.000316 µM): 99.7%; viability, T/C (second compound 0.01 µM, first compound 0.001 µM): 102%; viability, T/C (second compound 0.01 µM, first compound 0.00316 µM): 96.8%; viability, T/C (second compound 0.01 µM, first compound 0.01 µM): 89%; viability, T/C (second compound 0.0316 µM, first compound 0.000316 µM): 94.2%; viability, T/C (second compound 0.0316 µM, first compound 0.001 µM): 95.7%; viability, T/C (second compound 0.0316 µM, first compound 0.00316 µM): 84.5%; viability, T/C (second compound 0.0316 µM, first compound 0.01 µM): 79.1%; viability, T/C (second compound 0.1 µM, first compound 0.000316 µM): 90%; viability, T/C (second compound 0.1 µM, first compound 0.001 µM): 84.4%; viability, T/C (second compound 0.1 µM, first compound 0.00316 µM): 78.3%; viability, T/C (second compound 0.1 µM, first compound 0.01 µM): 73.4%; viability, T/C (second compound 0.316 µM, first compound 0.000316 µM): 81.9%; viability, T/C (second compound 0.316 µM, first compound 0.001 µM): 78%; viability, T/C (second compound 0.316 µM, first compound 0.00316 µM): 75.3%; viability, T/C (second compound 0.316 µM, first compound 0.01 µM): 73.3%; viability, T/C (second compound 1 µM, first compound 0.000316 µM): 67.9%; viability, T/C (second compound 1 µM, first compound 0.001 µM): 75.3%; viability, T/C (second compound 1 µM, first compound 0.00316 µM): 63.3%; viability, T/C (second compound 1 µM, first compound 0.01 µM): 65.8%

Reference: PubChem BioAssay AID2060335 (Molecular Pharmacology Branch, DTP, NCI, 2025)
